In patent US11439622B2 (OXFORD UNIVERSITY INNOVATION LIMITED, priority 2015, dated 2022):

Key:
E. coli EC10 NDM-1 = assay: Meropenem MIC, clinically derived strains; type: cell-based; conditions: inhibitor 10 μg/ml
Procedure: (§1) CLSI, Wayne, Pa.) in the absence of each inhibitor or in its presence at the concentration stated. In each case the inhibitor solution was added to broth at 0.1% v/v to achieve the required final concentration; DMSO was used to dissolve inhibitors.

K. pneumoniae A34 VIM-4 = assay: Meropenem MIC, clinically derived strains; type: cell-based; conditions: for Meropenem MIC in presence of inhibitor: inhibitor 10 μg/ml
Procedure: as §1
(§2) The results shown in Table 2 reveal that compounds of formula (I) are active in cells, including clinically relevant bacterial strains. Further studies were carried out to determine if compound of formula (I) potentiates BLA activity in clinically derived strains containing IMP-4, […] or NDM-1, which are the most commonly observed MBLs in clinical isolates.

K. pneumoniae IR16 NDM-1 = assay: Meropenem MIC, clinically derived strains; type: cell-based; conditions: for Meropenem MIC in presence of inhibitor: inhibitor 10 μg/ml
Procedure: as §1, §2

K. pneumoniae B12 IMP-4 = assay: Meropenem MIC, clinically derived strains; type: cell-based; conditions: for Meropenem MIC in presence of inhibitor: inhibitor 10 μg/ml
Procedure: as §1, §2

K. pneumoniae 5055 IMP-1 = assay: Meropenem MIC, clinically derived strains; type: cell-based; conditions: for Meropenem MIC in presence of inhibitor: inhibitor 10 μg/ml
Procedure: as §1, §2

K. pneumoniae B19 IMP-4 = assay: Meropenem MIC, clinically derived strains; type: cell-based; conditions: for Meropenem MIC in presence of inhibitor: inhibitor 10 μg/ml
Procedure: as §1, §2

[1] = system: K. pneumoniae 5055 + NDM-1; assay: Meropenem MIC, CLSI broth microdilution; type: cell-based; conditions: inhibitor 10 μg/ml
Procedure: as §1
(§3) For initial evaluations of the in vitro cell based activity of indole carboxylates we used well characterized bacterial strains (e.g. K. pneumoniae 5055; E. coli ATCC 25713) transformed with broad host range plasmids (e.g. pSU18 and derivatives) encoding few metallo-β-lactamases produced using their physiological (integron) promoters. We also tested a clinical strain, IR60 in the initial studies.^8

E. coli 25922 (control) = assay: Meropenem MIC, CLSI broth microdilution; type: cell-based; conditions: inhibitor 10 μg/ml
Procedure: as §1, §3

[2] = system: K. pneumoniae 5055 (control); assay: Meropenem MIC, CLSI broth microdilution; type: cell-based; conditions: for Meropenem MIC in presence of inhibitor: inhibitor 10 μg/ml
Procedure: as §1, §3

[3] = biological target: NDM-1 (New Delhi metallo-β-lactamase-1) (Klebsiella pneumoniae, UniProt C7C422); assay: Enzyme inhibition assay, NDM-1; type: biochemical; conditions: for IC50: read-out: pIC50 NDM-1 (converted)
NDM-1 (New Delhi metallo-β-lactamase-1), sequence (C7C422 29-270, looked up, species assumed): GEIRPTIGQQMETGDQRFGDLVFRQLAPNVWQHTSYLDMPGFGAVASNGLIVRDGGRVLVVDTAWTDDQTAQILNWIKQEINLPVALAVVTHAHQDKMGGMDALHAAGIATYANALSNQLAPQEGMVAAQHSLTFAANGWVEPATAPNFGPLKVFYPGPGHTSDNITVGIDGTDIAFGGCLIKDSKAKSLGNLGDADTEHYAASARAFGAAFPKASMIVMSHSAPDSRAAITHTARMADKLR
Procedure: (§4) The biological activity of the compounds of the present invention was tested using standard assay protocols.^7 The following representative enzymes NDM-1 (New Delhi metallo-β-lactamase-1), IMP-1 (Imipenemase-1) and VIM-2 (Veronese metallo-β-lactamase-2) were selected from different clinically relevant B1 metallo-β-lactamases.

E. coli IR60 = assay: Meropenem MIC, CLSI broth microdilution; type: cell-based; conditions: inhibitor 10 μg/ml
Procedure: as §1, §3
IR60 is a clinically strain original from India.^8 IR60 is also a multiresistant clinical strain.

[4] = biological target: VIM-2 (Veronese metallo-β-lactamase-2) (Escherichia coli, UniProt Q5U7L7); assay: Enzyme inhibition assay, VIM-2; type: biochemical; conditions: for IC50: read-out: pIC50 VIM-2 (converted)
Procedure: as §4

IMP-1 (Imipenemase-1) = IMP-1 (Imipenemase-1) (Serratia marcescens, UniProt P52699); assay: Enzyme inhibition assay, IMP-1; type: biochemical; conditions: for IC50: read-out: pIC50 IMP-1 (converted)
IMP-1 (Imipenemase-1), sequence (P52699 19-246, looked up, species assumed): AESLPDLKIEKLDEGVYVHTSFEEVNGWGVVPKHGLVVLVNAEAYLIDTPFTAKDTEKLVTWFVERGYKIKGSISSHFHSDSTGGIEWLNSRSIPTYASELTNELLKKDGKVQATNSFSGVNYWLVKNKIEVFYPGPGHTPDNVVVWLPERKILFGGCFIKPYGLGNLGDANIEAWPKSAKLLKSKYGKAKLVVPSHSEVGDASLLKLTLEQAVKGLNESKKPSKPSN
Procedure: as §4

[5] = system: K. pneumonia strain containing most clinically significant MBLs; assay: Screening against K. pneumonia strain containing MBLs, overall statement; type: cell-based; conditions: Table 4
Procedure: as §1

| SMILES | IC50 [3] [nM] | IC50 [4] [nM] | IC50 (IMP-1 (Imipenemase-1)) [nM] | other results |
| --- | --- | --- | --- | --- |
| Cc1cccc2c(-c3ccc(S(N)(=O)=O)cc3)c(C(=O)O)[nH]c12 [Example 6, 7-methyl-3-(4-sulfamoylphenyl)-1H-indole-2-carboxylic acid] | 15.8 | 316 | 10000 | Meropenem MIC in presence of inhibitor (E. coli EC10 NDM-1): 8 µg/mL; Meropenem MIC in presence of inhibitor (K. pneumoniae A34 VIM-4): 16 µg/mL; Meropenem MIC in presence of inhibitor (K. pneumoniae IR16 NDM-1): 2 µg/mL; Meropenem MIC in presence of inhibitor (K. pneumoniae B12 IMP-4): 16 µg/mL; Meropenem MIC in presence of inhibitor (K. pneumoniae 5055 IMP-1): 8 µg/mL; Meropenem MIC in presence of inhibitor (K. pneumoniae B19 IMP-4): 8 µg/mL; Meropenem MIC in presence of inhibitor [1]: 1 µg/mL; Meropenem MIC in presence of inhibitor (E. coli 25922 (control)): < 0.25 µg/mL; Meropenem MIC in presence of inhibitor [2]: < 0.25 µg/mL; Meropenem MIC in presence of inhibitor (E. coli IR60): < 0.25 µg/mL |
| Cc1cccc2c(-c3ccc(S(C)(=O)=O)cc3)c(C(=O)O)[nH]c12 [Example 12, 7-methyl-3-(4-(methylsulfonyl)phenyl)-1H-indole-2-carboxylic acid] | 12.6 | 316 | 12600 | Meropenem MIC in presence of inhibitor (E. coli EC10 NDM-1): 8 µg/mL; Meropenem MIC in presence of inhibitor (K. pneumoniae A34 VIM-4): 16 µg/mL; Meropenem MIC in presence of inhibitor (K. pneumoniae IR16 NDM-1): 1 µg/mL; Meropenem MIC in presence of inhibitor (K. pneumoniae B12 IMP-4): 8 µg/mL; Meropenem MIC in presence of inhibitor (K. pneumoniae 5055 IMP-1): 8 µg/mL; Meropenem MIC in presence of inhibitor (K. pneumoniae B19 IMP-4): 8 µg/mL; Meropenem MIC in presence of inhibitor [1]: 8 µg/mL; Meropenem MIC in presence of inhibitor (E. coli 25922 (control)): < 0.25 µg/mL; Meropenem MIC in presence of inhibitor [2]: < 0.25 µg/mL; Meropenem MIC in presence of inhibitor (E. coli IR60): < 0.5 µg/mL |
| CC(C)c1cccc2c(-c3ccc(F)cc3)c(C(=O)O)[nH]c12 [Example 53, 3-(4-fluorophenyl)-7-isopropyl-1H-indole-2-carboxylic acid] | 12.6 | 31.6 | 501 | Meropenem MIC in presence of inhibitor (E. coli EC10 NDM-1): 1 µg/mL; Meropenem MIC in presence of inhibitor (K. pneumoniae A34 VIM-4): 4 µg/mL; Meropenem MIC in presence of inhibitor (K. pneumoniae IR16 NDM-1): 1 µg/mL; Meropenem MIC in presence of inhibitor (K. pneumoniae B12 IMP-4): 2 µg/mL; Meropenem MIC in presence of inhibitor (K. pneumoniae 5055 IMP-1): 2 µg/mL; Meropenem MIC in presence of inhibitor (K. pneumoniae B19 IMP-4): 1 µg/mL; Meropenem MIC in presence of inhibitor [1]: 4 µg/mL; Meropenem MIC in presence of inhibitor (E. coli 25922 (control)): < 0.25 µg/mL; Meropenem MIC in presence of inhibitor [2]: < 0.25 µg/mL; Meropenem MIC in presence of inhibitor (E. coli IR60): < 0.25 µg/mL |
| CC(C)c1cccc2c(-c3ccc(C(=O)O)cc3)c(C(=O)O)[nH]c12 [Example 91, 3-(4-carboxyphenyl)-7-isopropyl-1H-indole-2-carboxylic acid] | 3.39 | 7.24 | 44.7 | – |
| CC(C)c1cccc2c(-c3ccc(CN4CCOCC4)cc3)c(C(=O)O)[nH]c12 [Example 94, 7-isopropyl-3-(4-(morpholinomethyl)phenyl)-1H-indole-2-carboxylic acid] | 5.89 | 105 | 105 | – |
| Cc1cccc2c(C3CCCCC3)c(C(=O)O)[nH]c12 [Example 103] | 79.4 | 3160 | 79400 | – |
| Cc1cccc2c(C3CCN(C(=O)OC(C)(C)C)CC3)c(C(=O)O)[nH]c12 [Example 105, 3-(1-tert-butoxycarbonyl-4-piperidyl)-7-methyl-1H-indole-2-carboxylic acid] | 158 | 2510 | 31600 | – |
| O=C(O)c1[nH]c2c(C3CC3)cccc2c1-c1ccc(F)cc1 [Example 106, 7-cyclopropyl-3-(4-fluorophenyl)-1H-indole-2-carboxylic acid] | 12.6 | 50.1 | 501 | – |
| O=C(O)c1[nH]c2c(CCO)cccc2c1-c1ccc(F)cc1 [Example 108, 3-(4-fluorophenyl)-7-(2-hydroxyethyl)-1H-indole-2-carboxylic acid] | 50.1 | 794 | 3160 | – |
| COc1cccc(-c2c(C(=O)O)[nH]c3c(C)cccc23)c1OC [Example 116, 3-(2,3-dimethoxyphenyl)-7-methyl-1H-indole-2-carboxylic acid] | 1260 | 39.8 | > 100000 | – |
| Cc1noc(C)c1-c1c(C(=O)O)[nH]c2c(C)cccc12 [Example 117, 3-(3,5-dimethylisoxazol-4-yl)-7-methyl-1H-indole-2-carboxylic acid] | 1260 | 200 | > 100000 | – |
| Cc1ccc2c(-c3ccc(F)cc3)c(C(=O)O)[nH]c2c1 [Example 119, 3-(4-fluorophenyl)-6-methyl-1H-indole-2-carboxylic acid] | 2000 | 15800 | 79400 | – |
| CC(C)NC(=O)c1[nH]c2c(C(C)C)cccc2c1-c1ccc(S(=O)(=O)N(C)C)cc1 [Example 123, 3-(4-(N,N-dimethylsulfamoyl)phenyl)-N,7-diisopropyl-1H-indole-2-carboxamide] | – | – | – | pIC50 NDM-1 [3]: N.I.; pIC50 VIM-2 [4]: N.I.; pIC50 IMP-1 (IMP-1 (Imipenemase-1)): N.I. |
| CC(C)c1cccc2c(-c3ccc(S(=O)(=O)N(C)C)cc3)c(C(=O)Nc3nccs3)[nH]c12 [Example 124, 3-(4-(N,N-dimethylsulfamoyl)phenyl)-7-isopropyl-N-(thiazol-2-yl)-1H-indole-2-carboxamide] | – | – | – | pIC50 NDM-1 [3]: N.I.; pIC50 VIM-2 [4]: N.I.; pIC50 IMP-1 (IMP-1 (Imipenemase-1)): N.I. |
| C[C@@H](O)[C@H]1C(=O)N2C(C(=O)O)=C(S[C@@H]3CN[C@H](C(=O)N(C)C)C3)[C@H](C)[C@H]12 [Meropenem, meropenem, reference compound] | – | – | – | Meropenem MIC (K. pneumoniae A34 VIM-4; meropenem alone): 64 µg/mL; Meropenem MIC (K. pneumoniae IR16 NDM-1; meropenem alone): 16 µg/mL; Meropenem MIC (K. pneumoniae B12 IMP-4; meropenem alone): 16 µg/mL; Meropenem MIC (K. pneumoniae 5055 IMP-1; meropenem alone): 16 µg/mL; Meropenem MIC (K. pneumoniae B19 IMP-4; meropenem alone): 16 µg/mL; Meropenem MICs ([2]; meropenem alone): < 0.25 µg/mL |

Now from value to compound, other results behind:

| IC50 [3] [nM] | IC50 [4] [nM] | IC50 (IMP-1 (Imipenemase-1)) [nM] | SMILES | other results |
| --- | --- | --- | --- | --- |
| 7.94 | 3.98 | 15.8 | CC(C)c1cccc2c(-c3cc(Cl)cc(Cl)c3)c(C(=O)O)[nH]c12 [Example 76, 3-(3,5-dichlorophenyl)-7-isopropyl-1H-indole-2-carboxylic acid] | activity against all the MBLs [5]: good activity |
| 10 | 407 | 13200 | CC(C)c1cccc2c(-c3ccc(S(=O)(=O)N(C)C)cc3)c(-c3nnn[nH]3)[nH]c12 [Example 102, 4-[7-isopropyl-2-(1H-tetrazol-5-yl)-1H-indol-3-yl]-N,N-dimethyl-benzenesulfonamide] | – |
| 251 | 12600 | 50100 | Cc1cccc2c(C3CCCC3)c(C(=O)O)[nH]c12 [Example 104, 3-cyclopentyl-7-methyl-1H-indole-2-carboxylic acid] | – |
| 631 | 1580 | 3980 | Cc1cccc2c(Cc3ccc(Cl)cc3)c(C(=O)O)[nH]c12 [Example 107, 3-[(4-chlorophenyl)methyl]-7-methyl-1H-indole-2-carboxylic acid] | – |
| > 20000 | 31600 | > 100000 | Cc1cccc2c1cc(C(=O)O)n2-c1ccc(F)cc1 [Example 120, 1-(4-fluorophenyl)-4-methyl-1H-indole-2-carboxylic acid] | – |
| 398 | – | – | CC(C)c1cccc2c(-c3ccc(S(=O)(=O)N(C)C)cc3)c(C(=O)Nc3ccccc3)[nH]c12 [Example 127, 3-(4-(N,N-dimethylsulfamoyl)phenyl)-7-isopropyl-N-phenyl-1H-indole-2-carboxamide] | pIC50 VIM-2 [4]: N.I.; pIC50 IMP-1 (IMP-1 (Imipenemase-1)): N.I. |
